The results in this text go back to ChEMBL document CHEMBL1151994, “Plant seeds as sources of potential industrial chemicals, pharmaceuticals, and pest control agents” (2009).

Format in all cases: functional
The subject of assay [1] is Ostrinia nubilalis. Description: Insecticidal activity against Ostrinia nubilalis. The settings on record: read-out: LD50 (the source's name).
Assay [2] concerns KB. Description: Cytotoxicity against human KB cells. The settings on record: for EC50: Homo sapiens, KB, read-out: ED50 (the source's name).
For assay [3], the system named is P388. As to the kind of experiment: In vivo antitumor activity against mouse P388 cells at 1 to 3.3 mg/kg relative to control. The settings on record: dose mg/kg 1-3.3.
The test system of assay [4] is PS. Description: In vivo antitumor activity against […] PS cells at 1 to 31 ug/kg relative to control.
Assay [5] can be described thus: In vivo antitumor activity against human B1 cells at 4 to 32 ug/kg relative to control.
Assay [6] concerns PS. Description: In vivo antitumor activity against […] PS cells at 8 to 23 ug/kg relative to control.
Assay [7] has as its system P388. Description: In vivo antitumor activity against mouse P388 cells at 0.25 to 1 mg/kg relative to control. The settings on record: dose mg/kg 0.25-1.
For assay [8], the system named is L1210. Description: In vivo antitumor activity against mouse L1210 cells at 0.25 to 1 mg/kg relative to control. The settings on record: dose mg/kg 0.25-1.

Converted amounts (≈) assume the structure as drawn.

As for `CO[C@H]1[C@H](O)[C@H](O[C@H]2CC[C@@]3(C)[C@H](CC[C@@H]4[C@@H]3CC[C@]3(C)[C@@H](C5=CC(=O)OC5)CC[C@]43O)C2)O[C@@H](C)[C@@H]1O` [NERIIFOLIN], the LC50 in assay [1] came out at 30 µg/mL (≈ 56.1 µM).
Consider `C/C=C(\C)C(=O)N[C@@H](c1ccccc1)[C@@H](O)C(=O)O[C@H]1C[C@@]2(O)[C@@H](OC(=O)c3ccccc3)[C@@H]3[C@]4(OC(C)=O)CO[C@@H]4C[C@H](O)[C@@]3(C)C(=O)[C@H](OC(C)=O)C(=C1C)C2(C)C` [CEPHALOMANNINE], for which the EC50 in assay [2] turned out to be 0.0038 µg/mL (≈ 0.00457 µM). Moreover, in assay [3], the T/C is listed as 158%.
Take `COc1cc2cc(c1Cl)N(C)C(=O)C[C@H](OC(=O)[C@H](C)N(C)C(=O)C(C)C)[C@]1(C)O[C@H]1[C@H](C)[C@@H]1C[C@@](O)(NC(=O)O1)[C@H](OC)/C=C/C=C(\C)C2OC` (stereo partly specified) [TREWIASINE]: the T/C is 126% in assay [4] and 165% in assay [5]. In assay [2], this compound registered an ED50 of 2 ×10⁻⁴ ug/ml.
Take `C=C1CO[C@](O)(C2OCOC(C3CC(=O)NC(=O)C3)[C@@H]2O)[C@H]1C` (stereo partly specified) [SESBANIMIDE A]: the EC50 in assay [2] turned out to be 0.0077 µg/mL (≈ 0.0235 µM). The compound also had a T/C in assay [6] of 140%.
As to `CO[C@@H]1[C@@H](O)[C@H](C)O[C@@H](O[C@H]2CC[C@@]3(C)[C@H](CC[C@@H]4[C@@H]3CC[C@]3(C)[C@@H](C5=CC(=O)OC5)CC[C@]43O)C2)[C@H]1OC(C)=O`, in assay [1], the LC50 amounted to 192 µg/mL (≈ 333 µM).
On to `COC(=O)C[C@](O)(CCCC(C)(C)O)C(=O)O[C@@H]1C(OC)=C[C@]23CCCN2CCc2cc4c(cc2[C@H]13)OCO4` [OMACETAXINE MEPESUCCINATE], for which the T/C in assay [7] came out at 244%; in assay [8], 123%.

Broadly, the T/C is the result in the treated group divided by that in the control group, in per cent.
